Source: patent US7910135B2, “Hydrogel wound dressing and biomaterials formed in situ and their uses” (ULURU Inc., priority 2006, dated 2011)

Assays:
[1] = Release of lidocaine or erythromycin from nanoparticle aggregates in PBS; format: physicochemical; details: dry blended with pHEMA or HEMA/GMA copolymer powder, aggregate formed in PBS
Excerpt: Poly-HEMA nanoparticle powder and HEMA/GMA copolymer nanoparticle powders were dry blended with lidocaine or erythromycin powder and upon exposure to PBS, aggregates formed trapping the active between the particles comprising the aggregate.

metalloproteases = details: cited from earlier work

| Structure (SMILES) | Change of release rate as the glycerol methacrylate comonomer is increased [1] | Effective concentration (metalloproteases) [mmol/L] |
| --- | --- | --- |
| CC[C@H]1OC(=O)[C@H](C)[C@@H](O[C@H]2C[C@@](C)(OC)[C@@H](O)[C@H](C)O2)[C@H](C)[C@@H](O[C@@H]2O[C@H](C)C[C@H](N(C)C)[C@H]2O)[C@](C)(O)C[C@@H](C)C(=O)[C@H](C)[C@@H](O)[C@]1(C)O [erythromycin] | increases | – |
| c1cnc2c(c1)ccc1cccnc12 [1,10 phenanthroline] | – | 0.1 |
| CCN(CC)CC(=O)Nc1c(C)cccc1C [lidocaine] | released at a slower rate | – |
